Columns and labels:
[1] = biological target: T1, MK2 (Homo sapiens (Human), UniProt P49137); assay: MK2 Thp-1 washout assay; assay type: cell-based; conditions: up to 6 hours after a 100 nM exposure (1 hour) and subsequent washout, Thp-1 cells
Experimental: Test compounds were assayed in Thp-1 human acute monocytic leukemia cells. Thp-1 were grown in suspension in T225 flasks. Two days prior to assay, Thp-1 cells were spun down, counted and plated at 1×10^6 cells per well of a 12 well plate in complete media containing 10 ng/ml PMA (phorbol myristate acetate) to differentiate the cells. […] Cells were thoroughly washed to remove the unbound test compound and placed back in the 37° C. tissue culture incubator for the washout period (0 h, 2 h, 6 h, or 16 h). After the washout, complete media containing 50 ng/ml LPS (lipopolysaccharide) was added for 15 minute stimulation, the cells were washed once with PBS, and protein lysates were prepared on ice with BioRad Bioplex lysis buffer. 20 μg total protein from each lysate was loaded on the gel and analyzed by SDS-PAGE. Western blots were probed for phosphorylation of the MK2 substrate Hsp27.

[2] = biological target: T1, MK2; assay: MK2 target occupancy assay in Thp-1 cells with Covalent probe 2; assay type: cell-based; conditions: 1 μM test compound, 1 hour at 37° C.
Experimental: This experiment measured occupancy of the MK2 target by compounds according to the invention. Thp-1 cells (human acute monocytic leukemia) were grown in suspension in T225 flasks. Two days prior to assay, Thp-1 cells were spun down, counted and plated at 1×10^6 cells per well of a 12 well plate in compete media containing 10 ng/ml PMA (phorbol myristate acetate) to differentiate the cells. On day of assay, cells were washed with complete media, and a -test compound was added to cells at a concentration of 1 μM in complete media and incubated for 1 hour at 37° C. Cells were washed 1× with PBS and lysed on ice with BioRad Bioplex lysis buffer. The lysates were incubated with 1 μM biotinylated MK2 Covalent probe 2 at room temperature for 1 hour. 50 μg of total protein from lysates was loaded on gel and blots were probed for total MK2 with SC-100393 antibody and for probe with streptavidin-800. The amount of covalent probe signal divided by the amount of MK2 signal for samples with no test compound treatment represents the maximum probe signal (MPS). In samples treated with test compound prior to covalent probe, the ratio of probe signal to MK2 signal (the test probe signal, TPS) will be reduced by the degree of target occupancy by the test compound which blocks covalent probe binding. […] This ratio is then expressed as a percent occupancy.

[3] = biological target: T1, MK2; assay: MK2 modification assessment by whole protein mass spectrometry; assay type: binding; conditions: intact MK2, 60 min, 10-fold excess of compound to protein
How it was run: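 MK2 treated with compound is analysed intact by MALDI-TOF after C4 cleanup in sinapinic acid matrix. Percent modification is the centroid mass shift against control MK2 divided by compound mass.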

[4] = biological target: p38a activated, mitogen-activated protein kinase-activated protein kinase 2 (MAPKAP-K2 or MK-2) enzyme (Homo sapiens (Human), UniProt P49137); assay: MK2 Omnia continuous-read kinase assay for compound potency; assay type: biochemical; conditions: [MK-2]=0.4 nM, [ATP]=1.0 mM, [ST3-Sox]=10 μM
How it was run: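 Continuous Omnia fluorescence read (λex360/λem485) every 71 s after starting with 0.4 nM MK-2, with 1.0 mM ATP (appKM 8-10 μM) and 10 μM ST3-Sox substrate.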

[5] = biological target: T1, MK2; assay: MK2 cellular assay (Hsp27 phosphorylation in Thp-1 cells); assay type: cell-based; conditions: differentiated Thp-1 cells, compound 1 hour, 50 ng/ml LPS 15 minutes, phosphorylation of Hsp27; read-out: MK2EC50
How it was run: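 PMA-differentiated (10 ng/ml, 2 days) human Thp-1 monocytic cells given compound for 1 h, washed, then stimulated with 50 ng/ml LPS for 15 min. Hsp27 phosphorylation measured by western blot of lysates (20 μg protein); EC50 from dose-response inhibition.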

[6] = test system: TNFα release; assay: PO mouse PD experiment (TNFα release after LPS); assay type: in vivo; conditions: CD-1 male mice, 30 mg/kg PO, 1 hour prior to LPS, read-out: % Inhibition of TNFa
Experimental: CD-1 male mice, approximately 5 weeks old were acquired from Charles River Laboratories. Animals were housed in ventilated cages with a 12/12 light cycle and provided rodent chow and water ad libitum. Mice were acclimated at least 1 week prior to study initiation (approximately 6 weeks old). Five (5) mice per group were predosed at 30 mg/kg PO with one of the following compounds: III-8, III-35, II-27, III-47, III-56, V-39, II-27, III-37, II-e-1, II-e-3, III-40, and V-58 (by oral gavage as a suspension in 0.5% methyl cellulose/0.25% Tween 80 in deionized water), 1 hour prior to LPS administration. LPS (E.Coli 055:B5 from Sigma, Cat #L2880) was diluted in 0.9% sterile saline (Webster Veterinary Supply, Cat #07-883-6734) to a final concentration of 30 μg/mL. Animals were administered 15 μg in 0.5 mL/mouse (approximately 0.5 mg/kg LPS) intraperitoneally. One hour post LPS administration, the mice were sacrificed via CO2 and whole blood was collected by cardiac puncture. Blood was placed in EDTA K2 tubes (Braintree Scientific, Cat #MT-1395), inverted 3 times and placed on wet ice until centrifugation at 4° C. Plasma was collected and stored on dry ice until stored at −80° C. until processing. TNFα levels were quantified using the “Mouse TNF-alpha Ultra-Sensitive Kit” from mesoscale.com (catalog number K152BHC-2) in conjunction with an MSD plate reader.

[7] = test system: TNFα release; assay: IV mouse PD experiment (TNFα release after LPS); assay type: in vivo; conditions: CD-1 male mice, less than 10 mg/kg IV, 1 hour prior to LPS
Experimental: CD-1 male mice, approximately 5 weeks old were acquired from Charles River Laboratories. Animals were housed in ventilated cages with a 12/12 light cycle and provided rodent chow and water ad libitum. Mice were acclimated at least 1 week prior to study initiation (approximately 6 weeks old). Five (5) mice per group were predosed with one of the following compounds: II-14, III-32, III-8, III-4, II-27 and III-40 (intravenously by lateral tail vein), 1 hour prior to LPS administration. LPS (E.Coli 055:B5 from Sigma, Cat #L2880) was diluted in 0.9% sterile saline (Webster Veterinary Supply, Cat #07-883-6734) to a final concentration of 30 μg/mL. Animals were administered 15 μg in 0.5 mL/mouse (approximately 0.5 mg/kg LPS) intraperitoneally. One hour post LPS administration, the mice were sacrificed via CO2 and whole blood was collected by cardiac puncture. Blood was placed in EDTA K2 tubes (Braintree Scientific, Cat #MT-1395), inverted 3 times and placed on wet ice until centrifugation at 4° C. Plasma was collected and stored on dry ice until stored at −80° C. until processing. TNFα levels were quantified using the “Mouse TNF-alpha Ultra-Sensitive Kit” from mesoscale.com (catalog number K152BHC-2) in conjunction with an MSD plate reader.

[8] = test system: TNFα release; assay: PO mouse PD experiment (TNFα release after LPS); assay type: in vivo; conditions: CD-1 male mice, 100 mg/kg PO, 1 hour prior to LPS, read-out: % Inhibition of TNFa

T1 sequence (P49137 whole entry): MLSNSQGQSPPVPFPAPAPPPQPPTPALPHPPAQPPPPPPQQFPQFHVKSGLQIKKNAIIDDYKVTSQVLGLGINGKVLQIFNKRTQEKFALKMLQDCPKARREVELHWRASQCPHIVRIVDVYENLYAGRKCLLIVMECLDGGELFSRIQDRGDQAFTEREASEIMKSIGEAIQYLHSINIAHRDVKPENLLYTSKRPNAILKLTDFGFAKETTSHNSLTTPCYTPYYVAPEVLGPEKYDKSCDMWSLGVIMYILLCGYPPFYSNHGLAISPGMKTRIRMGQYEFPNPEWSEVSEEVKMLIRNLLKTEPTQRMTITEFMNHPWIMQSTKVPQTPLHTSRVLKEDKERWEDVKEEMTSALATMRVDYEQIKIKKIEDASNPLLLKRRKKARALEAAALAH
Chain of p38a activated, mitogen-activated protein kinase-activated protein kinase 2 (MAPKAP-K2 or MK-2) enzyme (P49137 whole entry): as above

| Compound | inhibition of p-hsp27 (phosphorylated hsp27) after washout [1] [%] | receptor occupancy at 1 µM [2] [%] | MK2 Mass Mod [3] | IC50 [4] [nM] | EC50 [5] [nM] | inhibition in vivo at 30 mg/kg [6] [%] | reduction in TNFα release compared to untreated control [7] | inhibition in vivo at 100 mg/kg [8] [%] |
| --- | --- | --- | --- | --- | --- | --- | --- | --- |
| C=CC(=O)Nc1cc(-c2cc3c(cn2)CCc2c-3[nH]c3c2C(=O)NC2(CC2)C3)ccc1OCCOC [II-11, N-(2-(2-methoxyethoxy)-5-(7′-oxo-5′,6′,7′,8′8′,1′,11′-hexahydrospiro[cyclopropane-1,9′-pyrido[3′,4′:4,5]pyrrolo[2,3-f]isoquinolin]-2′-yl)phenyl)acrylamide] | > 95 | 95 | E (mass modification of ≥70%) | < 100 | < 100 | – | – | – |
| C=CC(=O)Nc1cc(-c2cc3c(cn2)CCc2c-3[nH]c3c2C(=O)NC2(CC2)C3)ccc1N1CCN(C)CC1 [II-27, N-(2-(4-methylpiperazin-1-yl)-5-(7′-oxo-5′,6′,7′,8′,10′,11′-hexahydrospiro[cyclopropane-1,9′-pyrido[3′,4′:4,5]pyrrolo[2,3-f]isoquinolin]-2′-yl)phenyl)acrylamide] | – | – | E (mass modification of ≥70%) | < 100 | < 100 | ≤ 20 | greater than 90% | – |
| C=CC(=O)Nc1cc(NC(=O)c2ccc3sc4c(c3c2)NC[C@@H](C)NC4=O)ccc1N1CCN(C)CC1 [III-4, (R)—N-(3-acrylamido-4-(4-methylpiperazin-1-yl)phenyl)-3-methyl-5-oxo-2,3,4,5-tetrahydro-1H-benzo[4,5]thieno[3,2-e][1,4]diazepine-9-carboxamide] | – | – | E (mass modification of ≥70%) | < 100 | < 100 | – | greater than 90% | – |
| C=CC(=O)Nc1cc(-c2ccc3c(ccc4sc5c(c43)NC[C@@H](C)NC5=O)n2)ccc1OCCOC [III-8, (R)—N-(2-(2-methoxyethoxy)-5-(10-methyl-8-oxo-9,10,11,12-tetrahydro-8H-[1,4]diazepino[5′,6′:4,5]thieno[3,2-f]quinolin-3-yl)phenyl)acrylamide] | – | 92 | E (mass modification of ≥70%) | 101 to 500 | < 100 | – | greater than 90% | 21 to 80 |
| C=CC(=O)N1CC(C)(C)Oc2ccc(NC(=O)c3ccc4sc5c(c4c3)NC[C@@H](C)NC5=O)cc21 [III-32, (R)—N-(4-acryloyl-2,2-dimethyl-3,4-dihydro-2H-benzo[b][1,4]oxazin-6-yl)-3-methyl-5-oxo-2,3,4,5-tetrahydro-1H-benzo[4,5]thieno[3,2-e][1,4]diazepine-9-carboxamide] | – | – | E (mass modification of ≥70%) | < 100 | < 100 | – | greater than 90% | – |
| C=CC(=O)Nc1cc(-c2ccc3c(ccc4sc5c(c43)NC[C@@H](C)NC5=O)n2)ccc1OCCN(C)C [III-40, (R)—N-(2-(2-(dimethylamino)ethoxy)-5-(10-methyl-8-oxo-9,10,11,12-tetrahydro-8H-[1,4]diazepino[5′,6′:4,5]thieno[3,2-f]quinolin-3-yl)phenyl)acrylamide] | – | – | – | < 100 | < 100 | ≤ 20 | greater than 90% | – |

— patent US11098061B2 (Celgene CAR LLC, priority 2013, dated 2021)
